{"source": "paper PMC3123436", "about": "(Bioorganic & medicinal chemistry, 2011)", "key": {"[1]": {"test_system": "M. tuberculosis CDC1551", "test": "96 well plate growth inhibition", "details": "visual, 8–10 d"}, "[2]": {"test_system": "Vero-E6 cells", "details": "African green monkey, 2 d"}, "[3]": {"target": "recombinant M. tuberculosis MshC (Mycobacterium tuberculosis, UniProt P9WJM9)", "sequence (P9WJM9 whole entry, looked up)": "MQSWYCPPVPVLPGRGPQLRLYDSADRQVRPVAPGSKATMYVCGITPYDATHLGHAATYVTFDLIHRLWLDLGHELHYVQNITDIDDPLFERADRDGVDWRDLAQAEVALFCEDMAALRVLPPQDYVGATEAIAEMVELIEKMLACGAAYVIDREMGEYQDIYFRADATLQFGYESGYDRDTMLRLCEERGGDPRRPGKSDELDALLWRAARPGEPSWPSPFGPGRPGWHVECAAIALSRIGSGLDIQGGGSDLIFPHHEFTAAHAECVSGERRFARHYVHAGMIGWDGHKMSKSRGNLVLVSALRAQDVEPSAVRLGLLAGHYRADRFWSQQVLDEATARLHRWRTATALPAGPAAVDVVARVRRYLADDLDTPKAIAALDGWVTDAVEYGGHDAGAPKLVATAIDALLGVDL", "format": "biochemical"}, "[4]": {"test_system": "MSH biosynthesis in M. tuberculosis Erdman", "test": "MSH and GlcN-Ins levels in M. tuberculosis Erdman cultured 7 d with 2", "details": "20–75 μM 2, 7 d culture, two independent experiments"}, "[5]": {"test_system": "M. tuberculosis Erdman", "test": "Inhibition of exponentially growing M. tuberculosis Erdman, 7 d flask culture"}, "[6]": {"test_system": "M. tuberculosis Erdman (control strain)", "test": "96 well plate growth inhibition"}}, "note": "Like-named read-outs stand apart in the source and are kept apart here.", "data": [{"smiles": "O=C(NCCN1CCCCCC1)c1ccc2c(c1)N(Cc1cccc(Cl)c1)C(=O)c1ccccc1[S+]2[O-]", "note": "(stereo not shown) [Compound 20]", "values": [{"measurement": "MIC95 (95% inhibition)", "setting": "[1]", "value": 110, "unit": "µM"}, {"measurement": "Vero Cell toxicity (MIC90)", "setting": "[2]", "value": 100, "unit": "µM"}]}, {"smiles": "CN(CCCNC(=O)c1ccc2c(c1)N(Cc1cccc(Cl)c1)C(=O)c1ccccc1S2)C1CCCCC1", "note": "[Compound 5, 10-(3-Chlorobenzyl)-N-(3-(cyclohexyl(methyl)amino)-propyl)-11-oxo-10,11 dihydrodibenzo[b,f][1,4]thiazepine-8-carboxamide]", "values": [{"measurement": "MshC inhibition, in words", "setting": "[3]; SAR discussion", "value": "less active than their corresponding sulfoxides"}]}, {"smiles": "CCC1CCCCN1CCCNC(=O)c1ccc2c(c1)N(Cc1cccc(Cl)c1)C(=O)c1ccccc1[S+]2[O-]", "note": "(stereo not shown) [Compound 12]", "values": [{"measurement": "Vero Cell toxicity (MIC90)", "setting": "[2]", "value": 100, "unit": "µM"}]}, {"smiles": "CC1CCCN(CCCNC(=O)c2ccc3c(c2)N(Cc2ccc(F)cc2)C(=O)c2ccccc2[S+]3[O-])C1", "note": "(stereo not shown) [Compound 35]", "values": [{"measurement": "fold less active than 3-chlorobenzyl derivative 19", "setting": "[3]", "value": 5, "unit": "fold"}]}, {"smiles": "CC1CC(C)CN(CCCNC(=O)c2ccc3c(c2)N(Cc2cccc(Cl)c2)C(=O)c2ccccc2[S+]3[O-])C1", "note": "(stereo not shown) [Compound 10]", "values": [{"measurement": "MshC inhibition, in words", "setting": "[3]", "value": "less effective"}]}, {"smiles": "Cc1ccc(CN2C(=O)c3ccccc3S(=O)(=O)c3ccc(C(=O)NCCCN4CCCC4)cc32)c(C)c1", "note": "[Compound 42]", "values": [{"measurement": "MshC inhibition, in words", "setting": "[3]; SAR discussion", "value": "just detectable inhibition"}]}, {"smiles": "CCN(CC)CCCNC(=O)c1ccc2c(c1)N(Cc1ccc(C)cc1C)C(=O)c1ccccc1[S+]2[O-]", "note": "(stereo not shown) [Compound 41]", "values": [{"measurement": "MshC inhibition, in words", "setting": "[3]; SAR discussion", "value": "no measurable inhibition"}]}, {"smiles": "O=C(NCCCN1CCCC1)c1ccc2c(c1)N(Cc1cccc(Cl)c1)C(=O)c1ccccc1[S+]2[O-]", "note": "(stereo not shown) [Compound 17]", "values": [{"measurement": "MIC95 (95% inhibition)", "setting": "[1]", "value": 220, "unit": "µM"}]}, {"smiles": "O=C(NCCCN1CCCC1)c1ccc2c(c1)N(Cc1cccc(Cl)c1)C(=O)c1ccccc1S2", "note": "[Compound 18]", "values": [{"measurement": "MIC95 (95% inhibition)", "setting": "[1]", "value": 110, "unit": "µM"}, {"measurement": "MshC inhibition, in words", "setting": "[3]; SAR discussion", "value": "less active than their corresponding sulfoxides"}]}, {"smiles": "O=C(NCCCN1CCOCC1)c1ccc2c(c1)N(Cc1cccc(Cl)c1)C(=O)c1ccccc1S2", "note": "[Compound 15]", "values": [{"measurement": "MshC inhibition, in words", "setting": "[3]; SAR discussion", "value": "less active than their corresponding sulfoxides"}]}, {"smiles": "CCCN(CCC)CCCNC(=O)c1ccc2c(c1)N(Cc1ccc(F)cc1)C(=O)c1ccccc1[S+]2[O-]", "note": "(stereo not shown) [Compound 36]", "values": [{"measurement": "fold loss in activity compared with 21", "setting": "[3]", "value": 30, "unit": "fold"}]}, {"smiles": "CN(CCCNC(=O)c1ccc2c(c1)N(Cc1cccc(Cl)c1)C(=O)c1ccccc1[S+]2[O-])C1CCCCC1", "note": "(stereo not shown) [Compound 2, N-[3-(cyclohexylmethylamino)propyl]-10-[(3-chlorophenyl)methyl]-10,11-dihydro-11-oxo-dibenzo-[b,f][1,4]-thiazepine-8-carboxamide-5-oxide]", "values": [{"measurement": "increase in the level of GlcN-Ins", "setting": "[4]", "value": 9, "unit": "fold"}, {"measurement": "MIC95 (95% inhibition)", "setting": "[1]", "value": 110, "unit": "µM"}, {"measurement": "concentration at which inhibition of growth was apparent", "setting": "[5]", "value": 20, "unit": "µM"}, {"measurement": "viable cells relative to day 0 inoculum", "setting": "[5]; 50 or 75 μM, plating", "value": "one-third"}, {"measurement": "MIC95 (95% inhibition)", "setting": "[6]", "value": "28 to 55", "unit": "µM"}]}, {"smiles": "Cc1ccc(CN2C(=O)c3ccccc3S(=O)(=O)c3ccc(C(=O)NCCCN4CCOCC4)cc32)c(C)c1", "note": "[Compound 43]", "values": [{"measurement": "MshC inhibition, in words", "setting": "[3]; SAR discussion", "value": "no measurable inhibition"}]}, {"smiles": "CCCCSCCCNC(=O)c1ccc2c(c1)N(Cc1cccc(Cl)c1)C(=O)c1ccccc1[S+]2[O-]", "note": "(stereo not shown) [Compound 8]", "values": [{"measurement": "MshC inhibition, in words", "setting": "[3]", "value": "complete loss of measurable activity"}]}, {"smiles": "CC1CCCN(CCCNC(=O)c2ccc3c(c2)N(Cc2cccc(Cl)c2)C(=O)c2ccccc2[S+]3[O-])C1", "note": "(stereo not shown) [Compound 19]", "values": [{"measurement": "Vero Cell toxicity (MIC90)", "setting": "[2]", "value": 100, "unit": "µM"}]}, {"smiles": "CN(CCCNC(=O)c1ccc2c(c1)N(Cc1ccc(F)cc1)C(=O)c1ccccc1[S+]2[O-])C1CCCCC1", "note": "(stereo not shown) [Compound 37]", "values": [{"measurement": "fold increase of IC50 / loss in activity compared to 2", "setting": "[3]", "value": "> 35", "unit": "fold"}]}, {"smiles": "O=C(NCCCN1CCOCC1)c1ccc2c(c1)N(Cc1cccc(Cl)c1)C(=O)c1ccccc1[S+]2[O-]", "note": "(stereo not shown) [Compound 14]", "values": [{"measurement": "MshC inhibition, in words", "setting": "[3]", "value": "similarly ineffective"}]}, {"smiles": "Cc1ccc(CN2C(=O)c3ccccc3[S+]([O-])c3ccc(C(=O)NCCCN(C)C4CCCCC4)cc32)c(C)c1", "note": "(stereo not shown) [Compound 40]", "values": [{"measurement": "MshC inhibition, in words", "setting": "[3]; SAR discussion", "value": "just detectable inhibition"}]}, {"smiles": "O=C(NCCCSC1CCCCC1)c1ccc2c(c1)N(Cc1cccc(Cl)c1)C(=O)c1ccccc1[S+]2[O-]", "note": "(stereo not shown) [Compound 6]", "values": [{"measurement": "MshC inhibition, in words", "setting": "[3]; SAR discussion", "value": "complete loss of measurable activity"}]}]}
